Measured values from article PMC10803328 (Scientific Reports, 2024).
Values joined by “and” are separate entries in the source; they are usually repeats but may differ in a detail not shown here. Equal values may be shown once. “Also recorded” adds a separate entry of the source.

Tests used:
PSAM^4-GlyR [1] = target: PSAM^4-GlyR (Homo sapiens, UniProt P23415+P36544, L131G/Q139L/Y217F); design: expressed in transfected cells; method as in PMID 30872534, PMID 24556591, PMID 36279419; conditions: read-out: PSAM^4-GlyR (Ki); in vitro binding assay, literature; cited from earlier work
[2] = Ex vivo measurements of radioactivity in rat brain and blood 100 min after i.v. injection
Description: Other experimental parameters that governed this study are listed in Supporting Information, Table S1. […] The rats were sacrificed via thoracotomy 100 min after radioligand injection. Anticoagulated blood was drawn from the myocardium followed by decapitation and harvesting of the brain. Each brain was removed, weighed, and immediately subjected to radio analysis after counting its concomitant radioactivity. Whole blood samples were removed and centrifuged to separate the plasma. Whole blood (300 µL each) and plasma samples (300 µL each) were also quantified for radioactivity in an automatic γ-counter (model 2480 Wizard 2; Perkin-Elmer) with an electronic window set at 360–1800 keV (counting efficiency, 51.84%). Briefly, plasma samples (~ 450 µL) were deproteinated with acetonitrile treatment (720 µL). The radioactivity of various plasma and brain tissues were counted in the γ-counter. Brain tissues were then homogenized in acetonitrile (1.0 mL) using a handheld tissue Tearor (model 985-370; BioSpec Products Inc; Bartlesville, OK), followed by a second homogenization in water (1.0 mL). The homogenates were counted in the γ-counter to calculate the percentage recovery of radioactivity in the acetonitrile extracts. Corrections of all tissue assays for physical decay were made with a half-life of 20.385 min. The homogenates were then centrifuged at 10,000g for 2 min. The clear supernatants were injected onto the HPLC column through nylon filters. For each sample, radioactivity in the resulting precipitate was used to calculate the percent recovery of activity into the acetonitrile supernatant.

[3] = Plasma free fraction by ultrafiltration, rat plasma; format: in vitro ADME; conditions: fresh rat plasma, read-out: rat plasma free fraction (fP)
Description: (§1) In vitro stability was calculated by dividing the relative composition of the blood or brain homogenate determined with radio-HPLC by the initial radiochemical purity of the radioligand. […] The mixture was incubated at room temperature for 10 min and then processed exactly as described previously. The ultrafiltration components that contained high radioactivity were allowed time for radioactivity decay to within the optimal range of the γ-counter before they were counted again.

[4] = Lipophilicity measurement (logD7.4) by partition; format: physicochemical; conditions: n = 6
Description: Aliquots were distributed to 16 borosilicate disposable culture tubes (13 × 100 mm). The tubes were divided into two groups of […]. […] Extraction was performed by vortexing the tubes with their content for 1 min. The tubes were then centrifuged for 1 min. The organic and the aqueous phases were separated, and each phase was then sampled (50 µL) and counted separately in a well-type γ-counter (model 1480 Wizard; Perkin-Elmer) with an electronic window set between 360 and 1800 keV. The remaining two tubes, containing the radioactivity in buffer, served as stability measures for the radioligand. […] The aqueous phases were injected onto the HPLC. The resulting radiochromatograms provided correction factors for the γ-counter counts, of the aqueous samples, to determine parent radioligand radioactivity only (corrected radioactivity)[32]. LogD7.4octanol and logD7.4cyclohexane were each calculated as log((cpm in organic phase)/(corrected cpm in aqueous phase)).

[5] = PET imaging and arterial plasma radiometabolite analysis in non-transduced healthy monkey; format: in vivo, rhesus monkey
Description: (§2) All PET imaging studies were performed with a Mediso LFER 150 preclinical scanner (nanoScan PET/CT). Brain and brain region radioactivity uptake was expressed by standardized uptake value (SUV) which normalizes for injected radioactivity and monkey body weight, as follows: SUV = [(% injected dose per g tissue) × body weight in g]/100.
(§3) Two male rhesus monkeys (macaca mulatta; 10.0 and 8.6 kg) underwent PET scanning. Each monkey was initially immobilized with ketamine (10 mg/kg, i.m.) and then maintained under anesthesia with 1.5% isoflurane. For each monkey, a baseline scan was performed for 120 min. […] Electrocardiogram, body temperature, heart, and respiration rates were monitored throughout the scans.
(§4) Total radioactivity concentrations in sampled arterial whole blood and plasma were measured in a γ-counter throughout the 90-min scanning period.
(§5) PET images were reconstructed using Fourier rebinding plus two-dimensional filtered back-projection with attenuation and scatter correction. Images were co-registered to a standardized monkey MRI template using the FMRIB Software Library (FSL; Oxford, UK). Thirty-four predefined brain regions of interest from the template were applied to the co-registered PET image to obtain regional, decay-corrected, time-activity curves.

[6] = Plasma free fraction, monkey plasma; format: in vitro ADME, rhesus monkey; conditions: baseline
Description: as §1

PSAM^4-GlyR [7] = assay: PET imaging and arterial plasma radiometabolite analysis in monkey transduced with PSAM^4-GlyR in the left amygdala; format: in vivo, rhesus monkey
Description: All studies were conducted in accordance with “Animal Research: Reporting of In Vivo Experiments” guidelines as well as Guidelines for the Care and Use of Laboratory Animals, 8th Edition, and were approved by the National Institute of Mental Health Animal Care and Use Committee. A lentivirus carrying an PSAM^4 expressed under a human synapsin promoter (Lenti-hSyn-PSAM^4-GlyR) was injected into the left amygdala of a single rhesus macaque (11-year-old male). 14 × 20 μL of virus was injected at 1.0 μL/min speed. The virus titer was measured at 1 × 10^9 i.u./mL. The surgery was performed under aseptic conditions in a fully equipped operating suite.
as §2, §3, §4, §5

[8] = Plasma free fraction by ultrafiltration, pooled human standard plasma; format: in vitro ADME
Description: as §1

[9] = PET imaging of brain in wild-type rats; format: in vivo, rat; conditions: i.v.
Description: as §2
Animals were maintained under anesthesia with 1.5% isoflurane throughout the scan. Radioligand was injected intravenously via a penile vein catheter followed by PET imaging for 90 min. Brain uptake was expressed as standardized uptake value (SUV, concentration normalized by injected activity and body weight) and compared between the wild-type and self-blocked conditions.

[10] = Rat-3, blocked with uPSEM792, 100 min
[11] = Rat-3, blocked with uPSEM792 i.v. 15 min before radioligand, 100 min
[12] = baseline rats (Rat-1, Rat-2), 100 min
[13] = baseline rats (Rat-1, Rat-2), 100 min after injection
[14] = rat, ex vivo, 100 min after i.v. injection, HPLC
[15] = non-transduced healthy monkey, i.v., PET

Sequence of PSAM^4-GlyR (Homo sapiens, UniProt P23415+P36544, L131G/Q139L/Y217F) (P36544+P23415 fused P36544:L131G/P36544:Q139L/P36544:Y217F): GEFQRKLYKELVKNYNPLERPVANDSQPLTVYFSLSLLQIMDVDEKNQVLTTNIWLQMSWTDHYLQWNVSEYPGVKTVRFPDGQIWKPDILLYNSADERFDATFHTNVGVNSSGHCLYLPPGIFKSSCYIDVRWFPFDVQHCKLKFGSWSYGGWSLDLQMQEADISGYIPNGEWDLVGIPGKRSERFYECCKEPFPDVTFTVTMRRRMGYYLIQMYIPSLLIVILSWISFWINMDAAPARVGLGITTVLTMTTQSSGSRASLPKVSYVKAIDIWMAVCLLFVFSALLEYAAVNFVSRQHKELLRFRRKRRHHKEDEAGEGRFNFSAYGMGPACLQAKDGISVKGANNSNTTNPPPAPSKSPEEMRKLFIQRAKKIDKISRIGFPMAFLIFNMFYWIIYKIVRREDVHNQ

[11CH3]n1c(=O)cnc2cc3c(cc21)C1CNCC3C1 (stereo not drawn) [[^11C]uPSEM792]
Ki (PSAM^4-GlyR [1]): 0.7 nM
Ex vivo brain [2, 10]: 0.72 nM
Ex vivo brain (SUV) [2, 10]: 0.401 SUV
Ex vivo plasma parent (SUV) [2, 10]: 0.064 SUV
Ex vivo whole blood (SUV) [2, 10]: 0.163 SUV
HPLC Composition (%), ex vivo brain [2, 11]: 68.3%
HPLC Composition (%), ex vivo plasma [2, 11]: 37.1%
Ex vivo brain [2, 12]: 0.68 nM and 0.83 nM
Ex vivo brain (SUV) [2, 12]: 0.407 SUV and 0.468 SUV
Ex vivo plasma parent (SUV) [2, 12]: 0.063 SUV and 0.064 SUV
Ex vivo whole blood (SUV) [2, 12]: 0.141 SUV and 0.163 SUV
HPLC Composition (%), ex vivo brain [2, 13]: 78.3% and 75.6%
HPLC Composition (%), ex vivo plasma [2, 13]: 43.0% and 37.9%
total radioactivity concentration in rat brain ([2]; ex vivo, 100 min after i.v. injection): ~ 0.4 SUV
Kp at 100 min ([2]; male, brain and plasma, intravenous, rat, 100 min, read-out: fold lower concentration of unchanged radioligand in plasma than in brain): 6.7
concentration of unchanged radioligand in plasma ([2]; rat, 100 min, n = 3): 0.064 ± 0.001 SUV
unchanged radioligand as share of radioactivity in brain [2, 14]: 75.6%
unchanged radioligand fraction of all radioactivity in plasma [2, 14]: 37.9%
fraction unbound at 10 min, 2.6 MBq/mL [3]: 0.898
ΔLogD7.4 (logD7.4(octanol) − logD7.4(cyclohexane)) [4]: 2.45 ± 0.03
time at which radiometabolites represented half of the radioactivity in plasma ([5]; male, rhesus monkey, in vivo): 78 min
unchanged radioligand peak in plasma radiochromatogram ([5]; male, rhesus monkey, in vivo, 120 min): 29%
peak of whole brain time-activity curve [5, 15]: 0.8 SUV and ~ 0.8 SUV
plateau of whole brain time-activity curve [5, 15]: about 0.65 SUV
fP (%) ([6]; PSAM^4-GlyR monkey): 89.42%
fP (%) ([6]; non-transduced healthy monkey): 89.29%
difference in uptake of radioactivity between left (PSAM^4-GlyR) and right amygdala (PSAM^4-GlyR [7]; PSAM^4-GlyR monkey, PET): No significant difference
evidence of PSAM^4-GlyR specific binding in left amygdala (PSAM^4-GlyR [7]; PSAM^4-GlyR monkey, PET, compartmental modeling): do not reveal any evidence of specific binding; also recorded: no evidence was obtained for PSAM^4-GlyR specific binding
time at which radiometabolites accounted for 50% of radioactivity in plasma (PSAM^4-GlyR [7]; male, rhesus monkey, in vivo): 30 min
peak whole brain radioactivity uptake (PSAM^4-GlyR [7]; monkey transduced in the left amygdala with PSAM^4-GlyR, i.v., PET): ~ 0.8 SUV
fraction unbound at 10 min, 2.6 MBq/mL [8]: 0.876
peak whole brain radioactivity uptake [9]: ~ 0.6 SUV and < 0.6 SUV
time of peak whole brain radioactivity [9]: 5 min
